The source of these data is patent US9365583B2, “Substituted pyrazoles and uses thereof” (Genentech, Inc., priority 2013, dated 2016).

pKi: −log10 of the molar value.

This assay has as its target T1, N-terminally GST-tagged DLK (catalytic domain amino acid 1-520) (Homo sapiens, UniProt Q12852).
T1 construct: N-terminally GST-tagged DLK (catalytic domain amino acid 1-520); purchased Carna Bioscience
T1 sequence (Q12852 1-520): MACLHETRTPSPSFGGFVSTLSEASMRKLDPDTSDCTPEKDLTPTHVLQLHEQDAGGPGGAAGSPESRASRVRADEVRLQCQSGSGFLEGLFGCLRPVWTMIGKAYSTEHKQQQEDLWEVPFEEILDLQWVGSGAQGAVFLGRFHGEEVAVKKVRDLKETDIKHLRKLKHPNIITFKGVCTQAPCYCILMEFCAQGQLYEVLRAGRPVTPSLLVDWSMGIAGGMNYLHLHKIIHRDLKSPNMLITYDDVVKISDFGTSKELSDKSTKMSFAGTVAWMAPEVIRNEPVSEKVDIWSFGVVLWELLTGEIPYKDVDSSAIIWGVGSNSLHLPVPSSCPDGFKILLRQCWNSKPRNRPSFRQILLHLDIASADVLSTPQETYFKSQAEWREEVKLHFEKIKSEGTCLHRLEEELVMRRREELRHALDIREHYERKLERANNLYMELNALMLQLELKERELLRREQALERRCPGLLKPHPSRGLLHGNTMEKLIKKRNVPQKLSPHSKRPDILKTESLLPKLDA
The assay is described as follows: DLK TR-FRET inhibition assay. Particulars: 5 nM GST-DLK, 40 nM HIS-MKK4 K131M substrate, 30 μM ATP, 60 minutes at ambient temperature. The assay is classed as biochemical. The method, then: DLK TR-FRET inhibition assay: DLK kinase reactions (20 μL) containing 5 nM N-terminally GST-tagged DLK (catalytic domain amino acid 1-520) (Carna Bioscience), 40 nM N-terminally HIS-tagged MKK4 K131M substrate, and 30 μM ATP in kinase reaction buffer (50 mM HEPES, pH 7.5, 0.01% Triton X-100, 0.01% Bovine γ-Globulins, 2 mM DTT, 10 mM MgCl2 and 1 mM EGTA), and testing compound 1:3 serial diluted starting at 20 uM were incubated at ambient temperature for 60 minutes in 384 well OptiPlate (Perkin Elmer). To quench kinase reactions and detect phosphorylated MKK4, 15 μL of TR-FRET antibody mixture containing 2 nM anti-phosphorylated MKK4 labeled with Europium cryptate (Cisbio) and 23 nM anti-HIS labeled with D2 (Cisbio) in detection buffer (25 mM Tris pH 7.5, 100 mM NaCl, 100 mM EDTA, 0.01% Tween-20, and 200 mM KF) was added to the reaction mixture. The detection mixture was incubated for 3 hours at ambient temperature and the TR-FRET was detected with an EnVision multilabel plate reader (Perkin-Elmer) using the LANCE/DELFIA Dual Enh label from Perkin-Elmer (excitation filter: UV2 (TRF) 320 and emission filters: APC 665 and Europium 615).
As usually defined, the pKi is the Ki on a negative log10 scale, so that one unit is a factor of ten. As for `CC(C)n1nc(-c2cnc(N)c(OC(F)F)c2)cc1[C@H]1[C@@H]2C[C@H](N3CC[C@H](F)C3)C[C@@H]21` [compound 285, 3-(difluoromethoxy)-5-(5-((1R,3r,5S,6S)-3-((S)-3-fluoropyrrolidin-1-yl)bicyclo[3.1.0]hexan-6-yl)-1-isopropyl-1H-pyrazol-3-yl) pyridin-2-amine], the pKi is 8.37.

In turn, `CO[C@H]1CCN([C@H]2C[C@@H]3[C@H](C2)[C@H]3c2cc(-c3cnc(N)c(OC(F)F)c3)nn2C(C)C)C1` [compound 212, 3-(difluoromethoxy)-5-(1-isopropyl-5-((1R,3r,5S,6S)-3-((S)-3-methoxypyrrolidin-1-yl)bicyclo [3.1.0]hexan-6-yl)-1H-pyrazol-3-yl)pyridin-2-amine] showed a pKi of 8.36.

Compound `CC(C)n1nc(-c2cnc(N)c(C(F)(F)F)c2)cc1[C@H]1[C@@H]2C[C@@H](N(C)CC3COC3)C[C@@H]21` [compound 21, 5-(1-isopropyl-5-((1R,3s,5S,6r)-3-(methyl(oxetan-3-ylmethyl)amino)bicyclo[3.1.0]hexan-6-yl)-1H-pyrazol-3-yl)-3-(trifluoromethyl) pyridin-2-amine] gave a pKi of 8.38.

On to `Nc1ncc(-c2cc([C@H]3[C@@H]4C[C@H](N5CCOCC5)C[C@@H]43)nn2CC2CC2)cc1OC(F)F` [compound 267, 5-(1-(cyclopropylmethyl)-3-((1R,3r,5S,6r)-3-morpholinobicyclo [3.1.0]hexan-6-yl)-1H-pyrazol-5-yl)-3-(difluoromethoxy) pyridin-2-amine], for which the pKi was 6.66.

On to “5-(1-isopropyl-5-((1R,3r,5S,6R)- 3-((R)-2-methylmorpholino) bicyclo[3.1.0]hexan-6-yl)-1H- pyrazol-3-yl)-3-(trifluoromethoxy) pyridin-2-amine [compound 12]”, for which the pKi was 8.75.

As for `CC(C)n1nc(-c2cnc(N)c(OC(F)F)c2)cc1[C@H]1[C@@H]2C[C@H](N3CCO[C@@H](C)C3)C[C@@H]21` [compound 78, 3-(difluoromethoxy)-5-(1-isopropyl-5-((1R,3r,5S,6S)-3-((S)-2-methylmorpholino)bicyclo[3.1.0]hexan-6-yl)-1H-pyrazol-3-yl) pyridin-2-amine], the pKi is 9.28.

The compound `Nc1ncc(-c2cc([C@H]3[C@@H]4C[C@@H](N5CCCOCC5)C[C@@H]43)n(CC(F)F)n2)cc1OC(F)(F)F` [compound 243, 5-(5-((1R,3s,5S,6r)-3-(1,4-oxazepan-4-yl)bicyclo[3.1.0]hexan-6-yl)-1-(2,2-difluoroethyl)-1H-pyrazol-3-yl)-3-(trifluoromethoxy) pyridin-2-amine] had a pKi of 8.96.

`CC(C)n1nc(-c2cnc(N)c(C(F)(F)F)c2)cc1[C@H]1[C@@H]2C[C@@]3(CCN3C3COC3)C[C@@H]21` [compound 151, 5-(1-isopropyl-5-((1′R,2r,5′S,6′r)-1-(oxetan-3-yl)spiro[azetidine-2,3′-bicyclo[3.1.0]hexan]-6′-yl)-1H-pyrazol-3-yl)-3-(trifluoromethyl) pyridin-2-amine] gave a pKi of 8.05.

For `COC1CCN([C@H]2C[C@@H]3[C@H](C2)[C@H]3c2cc(-c3cnc(N)c(OC(F)F)c3)nn2C(C)C)CC1` [compound 247, 3-(difluoromethoxy)-5-(1-isopropyl-5-((1R,3r,5S,6r)-3-(4-methoxypiperidin-1-yl)bicyclo[3.1.0]hexan-6-yl)-1H-pyrazol-3-yl) pyridin-2-amine], the pKi was 8.54.

Consider `CO[C@@H]1CCN([C@H]2C[C@@H]3[C@H](C2)[C@H]3c2cc(-c3cnc(N)c(C(F)(F)F)c3)nn2C(C)C)C1` [compound 185, 5-(1-isopropyl-5-((1R,3r,5S,6R)-3-((R)-3-methoxypyrrolidin-1-yl)bicyclo[3.1.0]hexan-6-yl)-1H-pyrazol-3-yl)-3-(trifluoromethyl) pyridin-2-amine], for which the pKi is 8.80.
